Measured values reported in the supplement of paper PMC10307832.

compound: COc1nc(N)nc2c1ncn2[C@@H]1O[C@H](CO)[C@@H](O)[C@@H]1O [Nelarabine] + O=C(CCCCCCC(=O)Nc1ccccc1)NO [Vorinostat] (partner 1 µM); test: relative viability (nuclei count vs DMSO), 5 days (fraction); higher = more cells survive; conditions: first compound 0.1 µM
Method in brief: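 One day after seeding in 1536-well plates, lung cancer cell lines were dosed by pin tool. Dosing was either single-drug or a fixed anchor-drug dose plus five library-drug doses (not always all listed) in √10 steps. After 5 days, nuclei were stained in one fix-and-stain step and counted on 4× images, and relative viability is the nuclei count of treated wells over that of vehicle wells, given as the median of duplicate plates.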

In order of rising relative viability:
1. NCI-H2228  0.387
2. NCI-H2023  0.525
3. NCI-H2347  0.569
4. RERF-LC-KJ  0.623
5. PC-14  0.662
6. NCI-H2009  0.663
7. NCI-H2126  0.689
8. NCI-H2085  0.77
9. PC-3 [JPC-3]  0.918
10. SK-LU-1  0.924
11. NCI-H2405  1.05
12. NCI-H2087  1.07

same assay, conditions: first compound 0.3162 µM

In order of falling relative viability:
1. NCI-H3122  1.17
2. NCI-H460  1.13
3. NCI-H1666  1.09
4. NCI-H2405  1.03
5. PC-3 [JPC-3]  0.957
6. NCI-H322M  0.943
7. SK-LU-1  0.94
8. NCI-H441  0.886
9. NCI-H1437  0.878
10. NCI-H2087  0.874
11. NCI-H1755  0.861
12. NCI-H2085  0.819
13. LXF-289  0.807
14. NCI-H2009  0.8
15. NCI-H1975  0.796
16. NCI-H1734  0.766
17. NCI-H661  0.761
18. NCI-H838  0.755
19. NCI-H520  0.746
20. RERF-LC-KJ  0.72
21. NCI-H2023  0.71
22. NCI-H2126  0.691
23. NCI-H1355  0.679
24. NCI-H596  0.671
25. NCI-H23  0.615
26. NCI-H2347  0.61
27. NCI-H1993  0.592
28. PC-14  0.578
29. NCI-H1915  0.573
30. NCI-H1651  0.566
31. NCI-H1650  0.549
32. NCI-H2228  0.495
33. NCI-H650  0.479
34. NCI-H647  0.456

same assay, conditions: first compound 1 µM

In order of falling relative viability:
1. NCI-H3122  1.02
2. NCI-H1666  0.964
3. NCI-H460  0.923
4. NCI-H2087  0.898
5. NCI-H1734  0.892
6. NCI-H2405  0.886
7. NCI-H1755  0.873
8. SK-LU-1  0.845
9. NCI-H520  0.828
10. NCI-H2085  0.816
11. NCI-H2126  0.816
12. NCI-H1437  0.808
13. NCI-H322M  0.802
14. NCI-H441  0.793
15. NCI-H2228  0.792
16. NCI-H1975  0.76
17. NCI-H838  0.73
18. NCI-H661  0.727
19. RERF-LC-KJ  0.727
20. PC-3 [JPC-3]  0.709
21. NCI-H1355  0.705
22. NCI-H1993  0.694
23. PC-14  0.691
24. NCI-H2023  0.687
25. NCI-H1650  0.681
26. LXF-289  0.662
27. NCI-H596  0.661
28. NCI-H2009  0.661
29. NCI-H23  0.584
30. NCI-H647  0.583
31. NCI-H1915  0.57
32. NCI-H1651  0.553
33. NCI-H650  0.499
34. NCI-H2347  0.455
